These results are taken from patent US4738971A, “N-aryl-1,2-dihydro-4-substituted-1-alkyl-2-oxo-quinoline-3-carboxamides” (priority 1981, dated 1988).

One experiment relates to delayed hypersensitivity reaction (pertussis vaccine pleurisy). Nature of the experiment: pertussis vaccine pleurisy test in rats. It counts as in vivo, rat (male Sprague-Dawley). Conditions: 10 mg/kg p.o. The text has this:
A useful test for the evaluation of the effect of chemical compounds on the immune system is the pertussis vaccine pleurisy test in rats. Compounds which enhance the response in this delayed hypersensitivity reaction are considered to stimulate cell-mediated immunity (4).
This example illustrates the effect of the compounds of the general formula I in the pertussis vaccine pleurisy test.
Pertussis vaccine pleurisy is a useful test for the evaluation of the effect of chemical compounds on the immune system. Compounds which enhance the response in this delayed hypersensitivity reaction are considered to stimulate cell-mediated immunity.
A modification of a method described in (4) was used. Male Sprague-Dawley rats weighing 250-275 g were used. At least ten animals were used in each group.
Equal volumes of Freund's incomplete adjuvant and a suspension of heat killed Bordetella pertussis organisms were mixed. To sensitize animals, day 0, 0.2 ml of a mixture containing 0.036×10^10 organisms/ml was injected into the dorsal surface of one hind paw and one forepaw.
The animals were challenged on day 12 with 0.1 ml of a mixture containing 0.25×10^10 organisms/ml that was injected intrapleurally. 48 hours after challenge, day 14, the volume of the exudate in the pleural cavity was measured.
The substances suspended in aqueous methocel solution 10 ml/kg were given intragastrically once daily from day 10 to day 13. The control groups were given methocel solution 10 ml/kg.
The effect of the substances was assessed by the exudate volume expressed in percent after comparison with the control groups.
As for `CNc1c(C(=O)N(C)c2ccccc2)c(=O)n(C)c2ccccc12` [10:6, N-methyl-N-phenyl-1,2-dihydro-1-methyl-4-methylamino-2-oxo-quinoline-3-carboxamide], the “significant enhancing effect in the pertussis vaccine pleurisy test” value is “significant enhancing effect”.

For `CN(C(=O)c1c(O)c2cccc3c2n(c1=O)CCC3)c1ccc(F)cc1` [19:2, N-(4-fluorophenyl)-N-methyl-1,2-dihydro-hydroxy-2-oxo-1,8-trimethylene-quinoline-3-carboxamide], the “significant enhancing effect in the pertussis vaccine pleurisy test” value is recorded as “significant enhancing effect”.

`COCCN(C(=O)c1c(O)c2ccccc2n(C)c1=O)c1cnccn1` [20:54, N-(2-methoxy-ethyl)-N-pyrazinyl-1,2-dihydro-4-hydroxy-1-methyl-2-oxo-quinoline-3-carboxamide]: the “significant enhancing effect in the pertussis vaccine pleurisy test” value is “significant enhancing effect”.

In the case of `CCN(CC)c1ccc(N(C)C(=O)c2c(O)c3ccccc3n(C)c2=O)cc1` [20:20, N-methyl-N-/4-diethylaminophenyl/-1,2-dihydro-4-hydroxy-1-methyl-2-oxo-quinoline-3-carboxamide], the “significant enhancing effect in the pertussis vaccine pleurisy test” value is on record as “significant enhancing effect”.

For the compound `Cn1c(=O)c(C(=O)Nc2ccc(O)cc2)c(O)c2ccccc21` [1:13, N-/4-hydroxyphenyl/-1,2-dihydro-4-hydroxy-1-methyl-2-oxo-quinoline-3-carboxamide], the “significant enhancing effect in the pertussis vaccine pleurisy test” value is reported as “significant enhancing effect”.

As for `CN(C(=O)c1c(O)c2ccccc2n(C)c1=O)c1ccc(C(=O)O)cc1` [21:13, N-(4-carboxyphenyl)-N-methyl-1,2-dihydro-4-hydroxy-1-methyl-2-oxo-quinoline-3-carboxamide], the “significant enhancing effect in the pertussis vaccine pleurisy test” value is recorded as “significant enhancing effect”.

Take `CN(C(=O)c1c(N)c2ccccc2n(C)c1=O)c1ccccc1` [10:5, N-methyl-N-phenyl-4-amino-1,2-dihydro-1-methyl-2-oxo-quinoline-3-carboxamide]: the “significant enhancing effect in the pertussis vaccine pleurisy test” value is recorded as “significant enhancing effect”.

`CN(C(=O)c1c(O)c2ccccc2n(C)c1=O)c1ccc(N2CCCC2)cc1` [20:21, N-methyl-N-/4-pyrrolidinophenyl/-1,2-dihydro-4-hydroxy-1-methyl-2-oxo-quinoline-3-carboxamide]: the “significant enhancing effect in the pertussis vaccine pleurisy test” value was “significant enhancing effect”.

For the compound `CN(C)c1ccc2c(c1)c(O)c(C(=O)N(C)c1ccccc1)c(=O)n2C` [20:3, N-methyl-N-phenyl-1,2-dihydro-6-dimethylamino-4-hydroxy-1-methyl-2-oxo-quinoline-3-carboxamide], the “significant enhancing effect in the pertussis vaccine pleurisy test” value is “significant enhancing effect”.

For the compound `C=CCn1c(=O)c(C(=O)N(C)c2ccccc2)c(O)c2ccccc21` [20:1, N-methyl-N-phenyl-1,2-dihydro-1-allyl-4-hydroxy-2-oxo-quinoline-3-carboxamide], the “significant enhancing effect in the pertussis vaccine pleurisy test” value was “significant enhancing effect”.

For `CN(C(=O)c1c(N)c2ccccc2n(C)c1=O)c1ccc(Cl)cc1` [10:13, N-(4-chlorophenyl)-N-methyl-4-amino-1,2-dihydro-1-methyl-2-oxo-quinoline-3-carboxamide], the “significant enhancing effect in the pertussis vaccine pleurisy test” value is “significant enhancing effect”.

`COc1ccc(N(C)C(=O)c2c(N)c3ccccc3n(C)c2=O)cc1` [10:12, N-(4-methoxyphenyl)-N-methyl-4-amino-1,2-dihydro-1-methyl-2-oxo-quinoline-2-carboxamide]: the “significant enhancing effect in the pertussis vaccine pleurisy test” value is reported as “significant enhancing effect”.

On to `Cc1cc(N(C)C(=O)c2c(O)c3ccccc3n(C)c2=O)sn1` [20:78, N-methyl-N-(3-methyl-5-isothiazolyl)-1,2-dihydro-4-hydroxy-1-methyl-2-oxo-quinoline-3-carboxamide], for which the “significant enhancing effect in the pertussis vaccine pleurisy test” value is given as “significant enhancing effect”.

On to `CN(C(=O)c1c(O)c2cccc3c2n(c1=O)CCC3)c1ccccc1` [19:1, N-methyl-N-phenyl-1,2-dihydro-4-hydroxy-2-oxo-1,8-trimethylene-quinoline-3-carboxamide], for which the “significant enhancing effect in the pertussis vaccine pleurisy test” value is reported as “significant enhancing effect”.

With `CN(C(=O)c1c(N)c2ccccc2n(C)c1=O)c1nccs1` [10:17, N-methyl-N-(2-thiazolyl)-4-amino-1,2-dihydro-1-methyl-2-oxo-quinoline-3-carboxamide], the “significant enhancing effect in the pertussis vaccine pleurisy test” value is recorded as “significant enhancing effect”.

On to `CN(C(=O)c1c(O)c2ccc(Cl)cc2n(C)c1=O)c1ccccc1` [20:2, N-methyl-N-phenyl-7-chloro-1,2-dihydro-4-hydroxy-1-methyl-2-oxo-quinoline-3-carboxamide], for which the “significant enhancing effect in the pertussis vaccine pleurisy test” value was “significant enhancing effect”.

Take `Nc1c(C(=O)Nc2ccccc2)c(=O)n2c3c(cccc13)CC2` [10:20, N-phenyl-4-amino-1,2-dihydro-1,8-ethylene-2-oxo-quinoline-3-carboxamide]: the “significant enhancing effect in the pertussis vaccine pleurisy test” value is given as “significant enhancing effect”.

Turning to `COc1ccc2c(c1)c(O)c(C(=O)N(C)c1ccc(Cl)cc1)c(=O)n2C` [20:4, N-(4-chloro-phenyl)-N-methyl-1,2-dihydro-4-hydroxy-6-methoxy-1-methyl-2-oxo-quinoline-3-carboxamide], the “significant enhancing effect in the pertussis vaccine pleurisy test” value is “significant enhancing effect”.

Consider `CN(C(=O)c1c(O)c2ccccc2n(C)c1=O)c1ncc[nH]1` [20:74, N-(2-imidazolyl)-N-methyl-1,2-dihydro-4-hydroxy-1-methyl-2-oxo-quinoline-3-carboxamide], for which the “significant enhancing effect in the pertussis vaccine pleurisy test” value is “significant enhancing effect”.

Staying with this experiment, now noted: Rattus norvegicus, po, 48 h; 10 mg/kg p.o., once daily day 10 to day 13, vs control; preliminary; read-out: Enhancement of the delayed hypersensitivity reaction assessed by the exudate vol.
As for `Cc1cc(NC(=O)c2c(O)c3ccccc3n(C)c2=O)sn1` [7:28, N-(3-methyl-5-isothiazolyl)-1,2-dihydro-4-hydroxy-1-methyl-2-oxo-quinoline-3-carboxamide], the change in vivo at 10 mg/kg was found to be 61%.

In the case of `Cc1ccc(-n2c(=O)c(C(=O)Nc3ccccc3)c(O)c3ccccc32)cc1` [1:50, N-phenyl-1,2-dihydro-4-hydroxy-1-(4-methylphenyl)-2-oxo-quinoline-3-carboxamide], the change in vivo at 10 mg/kg is 46%.

Take `O=C(Nc1cnccn1)c1c(O)c2cccc3c2n(c1=O)CCC3` [14:17, N-pyrazinyl-1,2-dihydro-4-hydroxy-2-oxo-1,8-trimethylene-quinoline-3-carboxamide]: the change in vivo at 10 mg/kg was determined as 27%.

For the compound `CN(C)c1ccc(NC(=O)c2c(O)c3cccc4c3n(c2=O)CCC4)cc1` [13:7, N-(4-dimethylaminophenyl)-1,2-dihydro-4-hydroxy-2-oxo-1,8-trimethylene-quinoline-3-carboxamide], the change in vivo at 10 mg/kg was 21%.

A further experiment concerns carrageenan-induced edema. Nature of the experiment: carrageenan edema test in rats. The format is in vivo, rat (female Sprague-Dawley). The note with it: Rattus norvegicus, po; 80 mg/kg p.o., 30 min before carrageenan; edema weight 3 h after, vs control; preliminary; read-out: Potentiation of the carrageenan edema, %. The text has this:
Another test, in which the effect of a drug corresponds to the effects obtained in the tests mentioned above, and which can therefore also be used, is the well-established carrageenan edema test in rats (5). Comparative evaluation of compounds of the present invention in the three tests mentioned has shown that compounds which increase the extent of the delayed hypersensitivity reaction in the pertussis vaccine pleurisy test and in the adjuvant arthritis test also increase the extent of carrageenan-induced edema in the carrageenan edema test, thus providing a further tool for the determination of enhancement of cell-mediated immunity.
This example illustrates the effect of the compounds of the general formula I in the carrageenan edema test in rats.
A modification of a method described in (5) was used. Female Sprague-Dawleyrats weighing 110-120 g was used. At least 10 animals were used in each experimental group. Foot edema was induced by injecting carrageenan in 0.9% NaCl into the plantar surface of the right hind paw of the rats.
The substances suspended in aqueous methocel solution 10 ml/kg were administered intragastrically 30 minutes before the injection of carrageenan. The control groups were given methocel solution 10 ml/kg.
Three hours after carrageenan injection the animals were killed. The hind feet were cut off and weighed. The difference in weight of the injected right paw and the uninjected left paw was called edema weight.
The effect of the substances was assessed by the edema weight expressed in percent after comparison with the control groups.
In the case of `Cn1c(=O)c(C(=O)Nc2ccccn2)c(O)c2ccccc21` [7:2, N-/2-pyridyl/-1,2-dihydro-4-hydroxy-1-methyl-2-oxo-quinoline-3-carboxamide], the change in vivo at 80 mg/kg was found to be 44%.

For the compound `Cn1c(=O)c(C(=O)Nc2ccccc2)c(O)c2cc(Cl)ccc21` [1:18, N-phenyl-6-chloro-1,2-dihydro-4-hydroxy-1-methyl-2-oxo-quinoline-3-carboxamide], the change in vivo at 80 mg/kg is 36%.

For the compound `Cc1csc(NC(=O)c2c(O)c3ccccc3n(C)c2=O)n1` [7:3, N-/2-(4-methyl-thiazolyl)/-1,2-dihydro-4-hydroxy-1-methyl-2-oxo-quinoline-3-carboxamide], the change in vivo at 80 mg/kg was 47%.

On to `O=C(Nc1cnccn1)c1c(O)c2cccc3c2n(c1=O)CC3` [14:9, N-pyrazinyl-1,2-dihydro-1,8-ethylene-4-hydroxy-2-oxo-quinoline-3-carboxamide], for which the change in vivo at 80 mg/kg amounted to 21%.

The same experiment, now with this note: dose within the range 10-160 mg/kg p.o.
Turning to `COc1c(C(=O)Nc2nccs2)c(=O)n(C)c2ccccc12` [17:1, N-(2-thiazolyl)-1,2-dihydro-4-methoxy-1-methyl-2-oxo-quinoline-3-carboxamide], the “significant potentiation of the carrageenan edema” value is given as “potentiate significantly”.

Consider `COc1c(C(=O)Nc2ccccc2)c(=O)n2c3c(cccc13)CCC2` [18:2, N-phenyl-1,2-dihydro-4-methoxy-2-oxo-1,8-trimethylene-quinoline-3-carboxamide], for which the “significant potentiation of the carrageenan edema” value is recorded as “potentiate significantly”.
